Read-outs that look alike come from different tables or passages of the source.
Key:
β2 adrenergic receptor = biological target: T1, β2 adrenergic receptor (Rattus norvegicus, UniProt P10608); assay: Antagonism of isoproterenolol on isolated rat uterus horns; type: cell-based; settings: 10^-8 -10^-6 M isoproterenolol
T1 construct: from tissue; host or cells: rat uterus horns (isolated organ, stilbestrol and reserpine pretreated)
Procedure: Female rats were intraperitonealy injected with stilbestrol (1 mg/kg) to elevate the sensitivity of β2 adrenergic receptor in uterus horns. The rats were subsequently administered reserpine to deplete the catecholamine in uterus. The isolated uterus horns were treated with phenoxybenzamine to block the neuronal uptake and the interaction between neuron cells and the adrenergic receptor.

[1] = system: heart rate and blood pressure; assay: Heart rate and blood pressure of anesthetized rats (i.v.); type: in vivo
Text: […]. The effect of DZN on heart rate and blood pressure were monitored.
[…]. Exp. Ther., vol. 96, 99-113). The ID50 value is the response of a β drug which produces a response in 50% of […].

[2] = system: isolated rat right atrium; assay: Isolated rat right atrium pretreated with reserpine; type: cell-based
β1 and β2 receptors = settings: cited from earlier work
in vivo = settings: mouse, mice, read-out: LD50 (95% C.L.)
[3] = system: platelet aggregation induced by collagen; assay: Collagen-induced platelet aggregation in platelet rich plasma; type: cell-based; settings: 10 μg/ml collagen, PRP; for IC100: Platelet, FIG. 18, read-out: concentration completely inhibiting platelet aggregation
Procedure: A monophasic aggregation curve was observed when 10 μg/ml of collagen was added to platelet rich plasma (PRP).

[4] = system: acetic acid-induced writhing syndrome; assay: Acetic acid-induced writhing (antinociceptive test); type: in vivo, male mice (ddk strain); settings: for Protection / Writhes No. (Ave. ± S.E.): 1.25 mg/kg i.p., N = 8; for ED50: Mus musculus, ip, read-out: ED50 (95% C.I.); for Potency ratio: relative to DZ = 1.00
Procedure: Following the method described by Koster antinociceptive tests were carried out in male mice after intraperitoneal administration of test solution. […] The test solution was administered by intraperitoneal injection of a single dose 0.2 ml (vehicle administered as control). Twenty minutes after injection, 0.2 ml of 0.7% acetic acid was injected intraperitoneally to induce writhing.

β-receptor = β-receptor (Cavia porcellus, UniProt H0W3H1); assay: Receptor binding assay, [3H]-dihydroalprenolol, heart ventricle membranes
Chain of β-receptor (H0W3H1 1-470): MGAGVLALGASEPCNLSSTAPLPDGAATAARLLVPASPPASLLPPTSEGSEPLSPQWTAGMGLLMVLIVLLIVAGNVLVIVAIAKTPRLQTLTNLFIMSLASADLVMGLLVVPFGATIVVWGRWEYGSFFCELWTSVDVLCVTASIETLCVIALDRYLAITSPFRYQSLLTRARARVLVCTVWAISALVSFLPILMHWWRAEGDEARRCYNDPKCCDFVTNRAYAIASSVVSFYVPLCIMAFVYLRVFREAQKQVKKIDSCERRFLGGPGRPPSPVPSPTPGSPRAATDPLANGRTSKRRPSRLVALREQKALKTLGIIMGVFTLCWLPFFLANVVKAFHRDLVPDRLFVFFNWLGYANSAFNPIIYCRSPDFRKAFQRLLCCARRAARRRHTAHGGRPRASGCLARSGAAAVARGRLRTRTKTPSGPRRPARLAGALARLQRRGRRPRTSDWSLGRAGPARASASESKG
Procedure: Method of receptor binding assay. After punching the heads of guinea pigs, the blood was drained and the heart ventricle immediately removed. The ventricles were placed in 10 vols. of ice-cold buffer (250 mM sucrose, 1 mM Magnesium Chloride, 50 mM Tris-HCl, pH 7.5) and all subsequent procedures were carried out at 4° C. The ventricles were homogenized using a homogenizer 3-4 times. The period of each homogenization took 15 seconds. […] The supernatant was further centrifuged at 10,000 g and the final pellet was resuspended in a small volume of 75 mM Tris buffer containing 25 mM Magnesium Chloride. The membrane protein content was determined by a protein assay dye. The receptor binding assay was initiated by incubating 100 μl of, a membrane protein solution with 50 μl of [^3 H]-dihydroalprenolol(^3 H-DHA) and the competing drugs. Additional buffer was added to increase the reaction volume up to 250 μl. The binding reaction was activated at 25° C. water by constantly shaking for 60 minutes. The binding reaction was stopped by diluting it with 1 ml of ice-cold assay buffer. The solution was then filtered on a Whatman GF/C glass fiber filter paper under vacuum suction. The filters were washed 3 times with ice-cold assay buffer and dried at 60±C. in an oven for 2 hrs. Then 4 ml of scintillation fluid was added and the radioactivity was counted on β-counter.

[5] = system: heart rate and blood pressure; assay: Heart rate and blood pressure changes of rats induced by guaiacoxypropanolamines; type: in vivo
[6] = biological target: T2, Isolated Guinea Pig Atria (Cavia porcellus, UniProt H0W3H1); assay: pA2 on isolated guinea pig atria; type: cell-based
T2 construct: Isolated Guinea Pig Atria; from tissue; host or cells: guinea pig atria (isolated organ)
T2 sequence (H0W3H1 1-470): as above
Text: The determination of the pA2 is made from experiments in which a fixed concentration of the antagonist is used along with graded concentrations of an agonist acting on the same receptor. The presence of the antagonist shifts the agonist dose-response curve to the right.

platelets = settings: cited from earlier work
[7] = mice, Litchfield and Wilcoxon method
[8] = 5 min after dosing, 1.0 mg/kg iv, means ± SE (n = 8)
[9] = 10 min after dosing, 1.0 mg/kg iv, means ± SE (n = 8)
[10] = 15 min after dosing, 1.0 mg/kg iv, means ± SE (n = 8)
[11] = 30 min after dosing, 1.0 mg/kg iv, means ± SE (n = 8)
[12] = 60 min after dosing, 1.0 mg/kg iv, means ± SE (n = 8)

T1 sequence (P10608 whole entry): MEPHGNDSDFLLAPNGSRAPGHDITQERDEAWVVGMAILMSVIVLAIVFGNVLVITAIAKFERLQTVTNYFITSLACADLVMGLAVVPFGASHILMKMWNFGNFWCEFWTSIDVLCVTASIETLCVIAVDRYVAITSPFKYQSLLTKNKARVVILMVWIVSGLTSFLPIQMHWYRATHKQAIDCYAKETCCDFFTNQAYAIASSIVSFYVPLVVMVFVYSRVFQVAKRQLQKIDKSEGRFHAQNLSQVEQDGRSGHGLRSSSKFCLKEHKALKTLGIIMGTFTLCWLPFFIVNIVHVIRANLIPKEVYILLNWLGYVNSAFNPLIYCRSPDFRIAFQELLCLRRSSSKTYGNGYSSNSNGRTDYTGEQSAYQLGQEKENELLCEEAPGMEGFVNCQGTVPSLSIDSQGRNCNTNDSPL

Compound: CC(C)NCC(O)c1ccc(O)c(O)c1 (stereo not shown) [isoproterenolol, reference compound]
- effect on isolated uterus horn smooth muscle (β2 adrenergic receptor): dose-related decrease in relaxation force
- effect on blood pressure ([1]; isoproterenolol 0.5 mg/kg): decreased blood pressure
- effect on heart rate ([1]; isoproterenolol 0.5 mg/kg): increased the heart rate
- effect on heart rate and contraction force ([2]; FIG. 16): increases the heart rate and contraction force
- concentration of isoproterenolol giving maximum effect ([2]; FIG. 17): 3 µM

Compound: CC(C)NCC(O)COc1ccc(CC(N)=O)cc1 (racemic) [Atenolol, reference compound]
- cardioselectivity (β1 and β2 receptors): possess cardioselectivity

Compound: COCCc1ccc(OCC(O)CNC(C)C)cc1 (stereo not shown) [Metoprolol]
- cardioselectivity (β1 and β2 receptors): possess cardioselectivity

Compound: COc1cc(C=CC(C)=O)ccc1O [DZ, 4-(4'-hydroxy-3'-methoxyphenyl)-3-buten-2-one]
- LD50 (in vivo; ip): > 1000 mg/kg
- LD50 (in vivo; po): > 1000 mg/kg
- effect on heart rate ([2]; 10^-9 -10^-5 M): did not affect the heart rate within 10^-9 -10^-5 M
- inhibition of collagen-induced platelet aggregation [3]: dose-dependent inhibition of platelet aggregation
- IC100 [3]: 250 µM
- Protection [4]: 63.06%
- Writhes No. (Ave. ± S.E.) [4]: 29.60 ± 3.75
- ED50 [4, 7]: 0.38 mg/kg

Compound: COc1cc(C=CC(C)=O)ccc1OCC1CO1 (stereo not shown) [DZE, 4-[4'-(2,3-Epoxypropoxy)-3'-methoxyphenyl]-3-buten-2-one]
- inhibition of collagen-induced platelet aggregation [3]: dose-dependent inhibition of platelet aggregation
- IC100 [3]: 100 µM
- Protection [4]: 65.69%
- Writhes No. (Ave. ± S.E.) [4]: 27.50 ± 3.32
- ED50 [4, 7]: 0.23 mg/kg
- Potency ratio [4]: 1.70

Compound: COc1cc(CCC(C)=O)ccc1OCC(O)CNC(C)C (racemic) [ZPN]
- EC50 (β-receptor): 11 µM

Compound: COc1cc(CCC(C)=O)ccc1O [zingerone, 4-(4'-hydroxy-3'-methoxyphenyl)-3-butan-2-one, reference compound]
- inhibition of collagen-induced platelet aggregation [3]: dose-dependent inhibition of platelet aggregation
- antinociceptive potency relative to DZ [4]: 3 times
- Protection [4]: 71.10%
- Writhes No. (Ave. ± S.E.) [4]: 20.75 ± 3.40
- ED50 [4]: 0.25 mg/kg
- Potency ratio [4]: 1.50

Compound: CCCC(=O)Nc1ccc(OCC(O)CNC(C)C)c(C(C)=O)c1 (stereo not shown) [Acebutolol]
- cardioselectivity (β1 and β2 receptors): possess cardioselectivity

Compound: CCCCCCCCC(=O)NCc1ccc(OCC(O)CNCCCCC)c(OC)c1 (stereo not shown) [NH-n-C5 H11, N-[4-o-(2-hydroxy-3-(n-pentylamino)propoxy)-3-methoxybenzyl]-nonamide]
- change in BP [5, 8]: -4.67 ± 1.71 mmHg
- change in HR [5, 8]: -25.11 ± 5.81 beats/min
- change in BP [5, 9]: -1.67 ± 1.87 mmHg
- change in HR [5, 9]: -23.33 ± 2.41 beats/min
- change in BP [5, 10]: -0.88 ± 3.00 mmHg
- change in HR [5, 10]: -10.22 ± 2.38 beats/min
- change in BP [5, 11]: 3.67 ± 2.66 mmHg
- change in HR [5, 11]: -5.78 ± 7.89 beats/min
- change in BP [5, 12]: 2.44 ± 1.96 mmHg
- change in HR [5, 12]: -6.56 ± 4.38 beats/min
- pA2, positive chronotropic ([6]; isolated guinea pig atria): 7.19 ± 0.02
- pA2, positive inotropic ([6]; isolated guinea pig atria): 7.55 ± 0.04
- Potency ratio (PR), positive chronotropic ([6]; with respect to propranolol): 0.12
- Potency ratio (PR), positive inotropic ([6]; with respect to propranolol): 0.14

Compound: CC(C)NCC(O)COc1cccc2ccccc12 (stereo not shown) [propranolol, reference compound]
- change in HR [5, 8]: -57.28 ± 5.94 beats/min
- change in BP [5, 9]: -6.33 ± 2.16 mmHg
- change in HR [5, 9]: -63.85 ± 7.18 beats/min
- change in BP [5, 10]: -6.50 ± 3.26 mmHg
- change in HR [5, 10]: -65.28 ± 8.43 beats/min
- change in BP [5, 11]: -4.67 ± 2.66 mmHg
- change in HR [5, 11]: -62.57 ± 9.06 beats/min
- change in BP [5, 12]: 2.17 ± 3.29 mmHg
- change in HR [5, 12]: -52.14 ± 10.93 beats/min
- change in BP ([5]; iv, 1 mg/kg, 5 min): -2.83 ± 1.81 mmHg
- adherence of platelets on collagen (platelets): inhibit platelet release and the adherence of platelets on collagen
- platelet release (platelets): inhibit platelet release
- shape change of platelets (platelets): does not inhibit the shape change of platelets
- effect on isoproterenolol-induced heart rate and blood pressure changes ([1]; FIGS. 6(A), 6(B)): antagonized the effects of isoproterenolol
- ED50 ([1]; Rattus norvegicus, iv, anesthetized rats, Litchfield method, read-out: ID50 : heart rate response (95% C.I.)): 0.14 mg/kg
- ID50 : heart rate response (95% C.I.) ([1]; i.v., anesthetized rats, Litchfield method): 0.14 (0.96-0.02) mg/kg
- time of slightly reduced blood pressure after injection ([1]; i.v., statistical significance not found): 5 to 10 min
- inhibition of collagen-induced platelet aggregation [3]: dose-dependent inhibition of platelet aggregation
